In patent US6914045B2, “Glycopeptide antibiotics” (Wyeth Holdings Corporation, priority 2001, dated 2005):
Converted amounts (≈) assume the structure as drawn.

How the values were obtained:
Experiment in all cases: in vitro antibacterial evaluation, MIC by broth dilution
Type in all cases: cell-based
Enterococcus sp. = settings: broth dilution, 18 hours at 35° C.
Procedure, shortened: (§1)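 MIC, the lowest antibiotic concentration preventing growth, was read across 64-0.06 μg/mL with 5×10^5 CFU/mL inoculum. Method followed NCCLS M7-A2 broth dilution using Mueller-Hinton II; Gram-positive strains covered recent methicillin-, penicillin- and/or vancomycin-resistant clinical isolates.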

Escherichia coli = settings: 18 hours at 35° C.
Procedure, shortened: as §1

Staphylococcus sp. = settings: broth dilution, 18 hours at 35° C.
Procedure, shortened: as §1

Streptococcus sp. = settings: broth dilution, 18 hours at 35° C.
Procedure, shortened: as §1

Compound: CC(c1ccccc1)C1NC(=O)CNC(=O)C(CO)NC(=O)C(C(O)C2CNC(=N)N2C2OC(CO)C(O)C(O)C2O)NC(=O)C(C(O)C2CNC(=N)N2)NC(=O)C(Cc2ccc(OC3OC(CO)C(OC4OC5COC(Cc6ccc(Br)cc6)OC5C(O)C4O)C(O)C3O)cc2)NC1=O (stereo not drawn) [Example 118, Cyclo[glycyl-β-methylphenylalanyl-O-[4-O-[4,6-O-(4-bromophenethylidene)hexopyranosyl]-hexopyranosyl]tyrosyl-3-(2-iminoimidazolidin-4-yl)seryl-3-(3-hexopyranosyl-2-iminoimidazolidin-4-yl)serylseryl]]
- MIC Enterococcus avium (GC 4558) (Enterococcus sp.; Enterococcus avium (GC 4558)): 1 to 2 µg/mL
- MIC Enterococcus faecalis (ATCC 29212) (Enterococcus sp.; Enterococcus faecalis (ATCC 29212)): 1 to 2 µg/mL
- MIC Enterococcus faecalis (GC 2242) (Enterococcus sp.; Enterococcus faecalis (GC 2242)): <0.5 to 2 µg/mL
- MIC Enterococcus faecalis (GC 2691) (Enterococcus sp.; Enterococcus faecalis (GC 2691)): 1 to 2 µg/mL
- MIC Enterococcus faecalis (GC 3059) (Enterococcus sp.; Enterococcus faecalis (GC 3059)): 1 to 2 µg/mL
- MIC Enterococcus faecalis (GC 4552) (Enterococcus sp.; Enterococcus faecalis (GC 4552)): 1 to 2 µg/mL
- MIC Enterococcus faecalis (GC 4553) (Enterococcus sp.; Enterococcus faecalis (GC 4553)): 1 to 2 µg/mL
- MIC Enterococcus faecalis (GC 4554) (Enterococcus sp.; Enterococcus faecalis (GC 4554)): 1 to 2 µg/mL
- MIC Enterococcus faecalis (GC 6189) (Enterococcus sp.; Enterococcus faecalis (GC 6189)): 1 to 2 µg/mL
- MIC Enterococcus faecium (GC 2243) (Enterococcus sp.; Enterococcus faecium (GC 2243)): 1 µg/mL (≈ 0.677 µM)
- MIC Enterococcus faecium (GC 4556) (Enterococcus sp.; Enterococcus faecium (GC 4556)): <0.5 to 1 µg/mL
- MIC Enterococcus faecium (GC 4557) (Enterococcus sp.; Enterococcus faecium (GC 4557)): <0.5 to 2 µg/mL
- MIC Enterococcus faecalis (ATCC 29212) (Enterococcus sp.; strain ATCC 29212): 1 to 2 µg/mL
- MIC Enterococcus faecalis (GC 2242) (Enterococcus sp.; strain GC 2242): <0.5 to 2 µg/mL
- MIC Enterococcus faecium (GC 2243) (Enterococcus sp.; strain GC 2243): 1 µg/mL (≈ 0.677 µM)
- MIC Enterococcus faecalis (GC 2691) (Enterococcus sp.; strain GC 2691): 1 to 2 µg/mL
- MIC Enterococcus faecalis (GC 3059) (Enterococcus sp.; strain GC 3059): 1 to 2 µg/mL
- MIC Enterococcus faecalis (GC 4552) (Enterococcus sp.; strain GC 4552): 1 to 2 µg/mL
- MIC Enterococcus faecalis (GC 4553) (Enterococcus sp.; strain GC 4553): 1 to 2 µg/mL
- MIC Enterococcus faecalis (GC 4554) (Enterococcus sp.; strain GC 4554): 1 to 2 µg/mL
- MIC Enterococcus faecium (GC 4556) (Enterococcus sp.; strain GC 4556): <0.5 to 1 µg/mL
- MIC Enterococcus faecium (GC 4557) (Enterococcus sp.; strain GC 4557): <0.5 to 2 µg/mL
- MIC Enterococcus avium (GC 4558) (Enterococcus sp.; strain GC 4558): 1 to 2 µg/mL
- MIC Enterococcus faecalis (GC 6189) (Enterococcus sp.; strain GC 6189): 1 to 2 µg/mL
- MIC Escherichia coli (ATCC 25922) (Escherichia coli; strain ATCC 25922): 16 to 32 µg/mL
- MIC Escherichia coli (GC 4559) (Escherichia coli; strain GC 4559): 16 µg/mL (≈ 10.8 µM)
- MIC Escherichia coli (GC 4560) (Escherichia coli; strain GC 4560): 1 µg/mL (≈ 0.677 µM)
- MIC Coagulase Negative Staphylococcus (GC 4547) (Staphylococcus sp.): <0.5 to 1 µg/mL
- MIC Coagulase Negative Staphylococcus (GC 4548) (Staphylococcus sp.): 0.25-0.25 μg/mL
- MIC Coagulase Negative Staphylococcus (GC 4551) (Staphylococcus sp.): <0.5 to 1 µg/mL
- MIC Coagulase Negative Staphylococcus (GC 6257) (Staphylococcus sp.): 0.25-0.25 μg/mL
- MIC Staphylococcus aureus (ATCC 29213) (Staphylococcus sp.): <0.5 to 1 µg/mL
- MIC Staphylococcus aureus (GC 1131) (Staphylococcus sp.): <0.5 to 1 µg/mL
- MIC Staphylococcus aureus (GC 3051) (Staphylococcus sp.): <0.5 to 1 µg/mL
- MIC Staphylococcus aureus (GC 3053) (Staphylococcus sp.): 1 µg/mL (≈ 0.677 µM)
- MIC Staphylococcus aureus (GC 4541) (Staphylococcus sp.): <0.5 to 1 µg/mL
- MIC Staphylococcus aureus (GC 4542) (Staphylococcus sp.): <0.5 to 1 µg/mL
- MIC Staphylococcus aureus (GC 4544) (Staphylococcus sp.): <0.5 to 1 µg/mL
- MIC Staphylococcus aureus (GC 4545) (Staphylococcus sp.): <0.5 to 1 µg/mL
- MIC Staphylococcus aureus-SMITH (GC 4543) (Staphylococcus sp.): <0.5 to 1 µg/mL
- MIC Staphylococcus aureus (GC 1131) (Staphylococcus sp.; inoculum 5×10^5 CFU/mL, strain GC 1131): <0.5 to 1 µg/mL
- MIC Staphylococcus aureus (ATCC 29213) (Staphylococcus sp.; strain ATCC 29213): <0.5 to 1 µg/mL
- MIC Staphylococcus aureus (GC 3051) (Staphylococcus sp.; strain GC 3051): <0.5 to 1 µg/mL
- MIC Staphylococcus aureus (GC 3053) (Staphylococcus sp.; strain GC 3053): 1 µg/mL (≈ 0.677 µM)
- MIC Staphylococcus aureus (GC 4541) (Staphylococcus sp.; strain GC 4541): <0.5 to 1 µg/mL
- MIC Staphylococcus aureus (GC 4542) (Staphylococcus sp.; strain GC 4542): <0.5 to 1 µg/mL
- MIC Staphylococcus aureus (GC 4544) (Staphylococcus sp.; strain GC 4544): <0.5 to 1 µg/mL
- MIC Staphylococcus aureus (GC 4545) (Staphylococcus sp.; strain GC 4545): <0.5 to 1 µg/mL
- MIC Coagulase Negative Staphylococcus (GC 4547) (Staphylococcus sp.; strain GC 4547): <0.5 to 1 µg/mL
- MIC Coagulase Negative Staphylococcus (GC 4548) (Staphylococcus sp.; strain GC 4548): 0.25-0.25 μg/mL
- MIC Coagulase Negative Staphylococcus (GC 4551) (Staphylococcus sp.; strain GC 4551): <0.5 to 1 µg/mL
- MIC Coagulase Negative Staphylococcus (GC 6257) (Staphylococcus sp.; strain GC 6257): 0.25-0.25 μg/mL
- MIC Staphylococcus aureus-SMITH (GC 4543) (Staphylococcus sp.; strain SMITH GC 4543): <0.5 to 1 µg/mL
- MIC Streptococcus agalactiae (GC 4564) (Streptococcus sp.; Streptococcus agalactiae (GC 4564)): <0.06 µg/mL
- MIC Streptococcus pneumoniae (ATCC 6301) (Streptococcus sp.; Streptococcus pneumoniae (ATCC 6301)): <0.06 µg/mL
- MIC Streptococcus pneumoniae (GC 1894) (Streptococcus sp.; Streptococcus pneumoniae (GC 1894)): <0.06 µg/mL
- MIC Streptococcus pneumoniae (GC 4565) (Streptococcus sp.; Streptococcus pneumoniae (GC 4565)): <0.06 µg/mL
- MIC Streptococcus pyogenes (GC 4563) (Streptococcus sp.; Streptococcus pyogenes (GC 4563)): <0.06 µg/mL
- MIC Streptococcus pneumoniae (ATCC 6301) (Streptococcus sp.; strain ATCC 6301): <0.06 µg/mL
- MIC Streptococcus pneumoniae (GC 1894) (Streptococcus sp.; strain GC 1894): <0.06 µg/mL
- MIC Streptococcus pyogenes (GC 4563) (Streptococcus sp.; strain GC 4563): <0.06 µg/mL
- MIC Streptococcus agalactiae (GC 4564) (Streptococcus sp.; strain GC 4564): <0.06 µg/mL
- MIC Streptococcus pneumoniae (GC 4565) (Streptococcus sp.; strain GC 4565): <0.06 µg/mL
